Results: patent publication US12692221B2 (priority 2024, dated 2026)

Experiments:
KV channel = format: binding, rat; conditions: KV channel (antagonist radiolig.)
alpha1A (h) = molecular target: T1, alpha1A (h) (Homo sapiens, UniProt P35348); assay: Radioligand binding alpha1A (h) (antagonist radioligand), [^3H]prazosin, CHO cells
T1 construct: expressed in transfected cells; host or cells: CHO cells
T1 sequence (P35348 1-466): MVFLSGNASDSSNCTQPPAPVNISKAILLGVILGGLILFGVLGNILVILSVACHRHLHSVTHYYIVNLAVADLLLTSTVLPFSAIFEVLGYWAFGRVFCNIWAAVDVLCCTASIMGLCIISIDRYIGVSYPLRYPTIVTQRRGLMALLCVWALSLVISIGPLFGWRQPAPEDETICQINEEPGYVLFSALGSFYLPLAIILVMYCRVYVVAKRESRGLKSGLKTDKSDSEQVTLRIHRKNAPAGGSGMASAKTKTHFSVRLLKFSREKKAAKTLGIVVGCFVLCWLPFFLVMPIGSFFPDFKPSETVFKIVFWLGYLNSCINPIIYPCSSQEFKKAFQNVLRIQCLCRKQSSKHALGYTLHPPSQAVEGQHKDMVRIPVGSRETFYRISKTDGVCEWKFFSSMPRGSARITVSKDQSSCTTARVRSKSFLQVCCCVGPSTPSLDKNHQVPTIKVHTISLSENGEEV
Method: (§1) Methods—Binding Assays: In vitro binding assays were performed using human recombinant receptors expressed in mammalian cell lines. Receptors were expressed in either HEK-293 or CHO cells depending on the target, and assay conditions (radioligand, concentration, nonspecific competitor, temperature, and incubation time) were optimized for each receptor. All assays were conducted in triplicate, and specific binding was quantified by scintillation counting as the detection method for each listed assay.
(§2) Specific binding was expressed as a percentage of control-specific binding, and percent inhibition was calculated using the formula in Ex. 8 above. Half-maximal inhibitory concentrations (IC50) were determined by non-linear regression analysis of the inhibition curves using the Hill equation (see Ex. 8). Inhibition constants (Ki) were calculated using the Cheng-Prusoff equation (see Ex. 8). KD values used in these calculations had been previously established for each receptor under the assay conditions (see Table 6). Data analysis was performed using software developed at Cerep and validated against SigmaPlot 4.0 for Windows.

D2S (h) = molecular target: T2, D2S (h) (Homo sapiens, UniProt P14416); assay: Radioligand binding D2S (h) (agonist radioligand), [^3H]7-OH-DPAT, HEK-293 cells
T2 construct: expressed in transfected cells; host or cells: HEK-293 cells
T2 sequence (P14416 1-414 isoform P14416-2): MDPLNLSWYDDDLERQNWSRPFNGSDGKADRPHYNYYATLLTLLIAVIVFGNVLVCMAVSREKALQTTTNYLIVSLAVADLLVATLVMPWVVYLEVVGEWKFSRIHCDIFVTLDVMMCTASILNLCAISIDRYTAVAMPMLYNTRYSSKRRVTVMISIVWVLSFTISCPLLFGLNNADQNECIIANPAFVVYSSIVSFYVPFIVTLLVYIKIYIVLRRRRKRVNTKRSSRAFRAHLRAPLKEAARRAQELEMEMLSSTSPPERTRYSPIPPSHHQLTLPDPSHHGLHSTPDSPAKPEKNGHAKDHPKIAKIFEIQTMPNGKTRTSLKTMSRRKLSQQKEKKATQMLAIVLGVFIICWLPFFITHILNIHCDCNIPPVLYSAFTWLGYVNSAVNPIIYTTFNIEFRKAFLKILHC
Method: as §1, §2

CB1 (h) = molecular target: T3, CB1 (h) (Homo sapiens, UniProt P21554); assay: Radioligand binding CB1 (h) (agonist radioligand), [^3H]CP 55940, Chem-RBL cells
T3 construct: expressed in transfected cells; host or cells: Chem-RBL cells
T3 sequence (P21554 whole entry): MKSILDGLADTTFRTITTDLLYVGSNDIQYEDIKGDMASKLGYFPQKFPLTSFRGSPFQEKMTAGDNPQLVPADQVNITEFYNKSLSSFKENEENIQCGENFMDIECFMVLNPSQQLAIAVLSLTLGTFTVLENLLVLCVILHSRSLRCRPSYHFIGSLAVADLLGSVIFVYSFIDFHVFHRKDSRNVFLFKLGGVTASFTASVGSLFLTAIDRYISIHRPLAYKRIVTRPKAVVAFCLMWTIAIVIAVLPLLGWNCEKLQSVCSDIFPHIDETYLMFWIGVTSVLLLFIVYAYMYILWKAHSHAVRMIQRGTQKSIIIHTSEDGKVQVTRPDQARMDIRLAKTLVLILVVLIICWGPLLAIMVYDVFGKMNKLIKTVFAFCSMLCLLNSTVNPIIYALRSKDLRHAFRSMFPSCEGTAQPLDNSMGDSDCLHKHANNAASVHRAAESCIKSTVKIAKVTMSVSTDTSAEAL

alpha1D (h) = molecular target: T4, alpha1D (h) (Homo sapiens, UniProt P25100); assay: Radioligand binding alpha1D (h) (antagonist radioligand), [^3H]prazosin, CHO cells
T4 construct: expressed in transfected cells; host or cells: CHO cells
T4 sequence (P25100 1-572): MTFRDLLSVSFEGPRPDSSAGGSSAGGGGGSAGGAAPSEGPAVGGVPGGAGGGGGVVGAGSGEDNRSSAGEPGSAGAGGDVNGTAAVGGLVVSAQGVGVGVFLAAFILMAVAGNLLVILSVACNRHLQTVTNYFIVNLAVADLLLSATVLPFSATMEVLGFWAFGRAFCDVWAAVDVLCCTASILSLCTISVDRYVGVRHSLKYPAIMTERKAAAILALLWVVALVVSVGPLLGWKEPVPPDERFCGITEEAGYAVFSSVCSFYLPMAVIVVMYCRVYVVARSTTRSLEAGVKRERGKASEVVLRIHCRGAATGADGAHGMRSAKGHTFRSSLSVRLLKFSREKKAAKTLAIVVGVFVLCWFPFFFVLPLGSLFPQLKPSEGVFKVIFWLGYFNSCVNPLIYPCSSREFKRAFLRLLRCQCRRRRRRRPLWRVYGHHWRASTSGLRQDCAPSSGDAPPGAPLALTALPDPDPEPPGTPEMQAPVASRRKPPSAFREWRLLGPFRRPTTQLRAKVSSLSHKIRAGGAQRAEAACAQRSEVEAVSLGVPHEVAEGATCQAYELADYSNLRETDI
Method: as §1, §2

5-HT2B = 5-HT2B (Homo sapiens, UniProt P41595); assay: Calcium flux agonist assay, 293T cells; format: cell-based; set-up: expressed in transfected cells; host or cells: Human Embryonic Kidney (293T) cells, transient; conditions: for Emax: HEK-293T, normalized to maximum 5-HT response; for 5-HT2B receptor activation: in words
5-HT2B, sequence (P41595 whole entry): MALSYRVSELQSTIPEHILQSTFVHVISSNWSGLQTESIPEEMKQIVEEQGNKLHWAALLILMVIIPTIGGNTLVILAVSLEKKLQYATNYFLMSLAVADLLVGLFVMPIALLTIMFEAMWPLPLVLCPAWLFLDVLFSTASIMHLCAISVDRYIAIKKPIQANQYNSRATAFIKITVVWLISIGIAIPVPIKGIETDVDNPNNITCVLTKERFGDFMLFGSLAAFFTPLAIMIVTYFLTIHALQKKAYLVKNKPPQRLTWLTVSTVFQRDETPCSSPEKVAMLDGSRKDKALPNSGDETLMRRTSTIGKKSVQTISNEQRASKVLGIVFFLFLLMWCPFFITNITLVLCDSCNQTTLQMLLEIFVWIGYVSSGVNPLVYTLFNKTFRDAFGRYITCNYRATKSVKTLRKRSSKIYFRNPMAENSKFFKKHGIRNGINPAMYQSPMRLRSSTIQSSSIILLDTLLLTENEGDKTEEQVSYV

[1] = Photoabsorption 290-700 nm, molar extinction coefficient (photoliability); format: physicochemical; conditions: wavelength of maximal absorption between 290 nm and 700 nm

Structure (SMILES)	Mean Percent Inhibition of Control Specific Binding (KV channel)	Mean Percent Inhibition of Control Specific Binding (alpha1A (h))	Mean Percent Inhibition of Control Specific Binding (D2S (h))	Mean Percent Inhibition of Control Specific Binding (CB1 (h))	Mean Percent Inhibition of Control Specific Binding (alpha1D (h))	EC50 (5-HT2B)	Emax (5-HT2B; calcium flux, 5-HT2B)	5-HT2B receptor activation (5-HT2B; calcium flux)	MEC [1]	Potency (EC50) (5-HT2B; calcium flux, 5-HT2B)
COCCc1cc(CCN)c(OC)cc1Br [Compound 2CB-5ME, reference compound]	−4.3%	33.6%	83.0%	4.0%	10.0%	–	–	–	–	–
COCc1cc(CCN)c(OC)cc1CC(C)C [Compound 2CiBu-5MM, 2-[4-isobutyl-2-methoxy-5-(methoxymethyl)phenyl]ethanamine]	−4.2%	7.6%	12.9%	−5.6%	0.5%	497 nM	45.7%	unexpectedly reduced 5-HT2B receptor activation	283.6 L/mol/cm	–
COCc1cc(CCN)c(O)cc1CC(C)C [2CiBu-2OH-5MM, 2-(2-aminoethyl)-5-isobutyl-4-(methoxymethyl)phenol]	12.7%	51.6%	46.6%	−1.9%	11.8%	–	2.64%	unexpectedly reduced 5-HT2B receptor activation	380.8 L/mol/cm	Unstable
COCc1cc(CCN)c(OC)cc1Br [Compound 2CB-5MM, 2-(4-bromo-2-methoxy-5-(methoxymethyl)phenyl)ethan-1-amine]	0.7%	29.4%	89.4%	−10.4%	9.5%	23.4 nM	94%	–	781.9 L/mol/cm	–
